Measurements: article PMC6154661, “In Vitro Glucuronidation and Sulfation of ε-Viniferin, a Resveratrol Dimer, in Humans and Rats” (Molecules : A Journal of Synthetic Chemistry and Natural …, 2017)
Several values for one entry are separate records, joined by “and”; a condition that tells them apart may be missing. Equal values may be shown once. Read-outs that look alike come from different tables or passages of the source.

How the values were obtained:
[1] = Formation of glucurono- and sulfoconjugates of ε-viniferin (50 µM, 40 min) with rat liver S9 fractions; format: in vitro ADME; conditions: rat liver S9, ε-viniferin 50 µM
Protocol: (§1) After incubation of ε-viniferin (50 µM) for 40 min at 37 °C with either human (Figure 2a, lower panel) or rat (Figure 2b, lower panel) liver S9 fractions (2 mg/mL) in the presence of different phase II cofactor(s), i.e., 3′-phosphoadenosine-5′-phosphosulfate (PAPS) and UDPGA, eight metabolites were found using UPLC-DAD-MS. These metabolites were further identified by comparison with the UPLC retention times and mass spectra of the authentic chemical standards that were obtained by chemical hemi-synthesis (Figure 1a). These eight compounds were the four glucuronoconjugates (MG1, MG2, MG3, and MG4) and the four sulfoconjugates (MS1, MS2, MS3, and MS4). These metabolites were absent in the control condition, i.e., in the presence of liver S9 fractions and in the absence of phase II cofactors (data not shown).
(§2) Samples from either chemical hemi-synthesis or metabolic reactions were carried using a 1290 Infinity UPLC (Agilent Technologies, Courtaboeuf, France). The UPLC was coupled to an Esquire 3000 Plus ion trap mass spectrometer using an ESI source (Bruker-Daltonics, Billerica, MA, USA). 2 µL were injected into an Agilent SB-C18 column (1.8 µm, 2.1 × 100 mm). Samples were eluted with solvent A (H2O 0.1% FA) and solvent B (acetonitrile 0.1% FA) by the following gradient program: 0–1.7 min, 10% B; 1.7–3.4 min, 10–20% B; 3.4–5.1 min, 20–30% B; 5.1–7.8 min, 30% B; 7.8–8.5 min, 30–35% B; 8.5–11.9 min, 35–60% B; 11.9–15.3 min, 60–100% B; 15.3–17 min, 100% B; 17–17.3 min, 100–10% B. The flow rate was set to 0.4 mL/min and the UV detector was set at the wavelength 320 nm. Total ion chromatograms were obtained using negative mode with a range of m/z 130–1400. The parameters were: capillary voltage, +4 kV; nebulizer pressure, 40 psi; dry gas, 10 L/min; dry temperature, 365 °C. Data analysis was performed with Bruker Data Analysis 3.2 (Bruker-Daltonics, Billerica, MA, USA). Metabolite concentrations were expressed as an equivalent of the ε-viniferin standard curve.
(§3) The incubation conditions were optimized by preliminary experiments to ensure the formation rates of metabolites were linear over the incubation time and at the concentration of protein added. Sulfation was investigated by incubating human or rat liver S9 fractions (2 mg/mL) with ε-viniferin at different concentrations (5 to 300 µM) in Tris-HCl buffer (50 mM, pH 7.4), in the presence of PAPS (1 mM), DTT (10 mM), MgCl2 (5 mM) in a final volume of 100 µL. After 40 min at 37 °C, the reaction was stopped with 100 µL of methanol to precipitate the protein. Glucuronidation was investigated by incubating human or rat liver S9 fractions (2 mg/mL) with ε-viniferin at different concentrations (5 to 300 µM) in Tris-HCl buffer (50 mM, pH 7.4), in the presence of UDPGA (1 mM), alamethicin (25 µg/mL), and MgCl2 (5 mM) in a final volume of 100 µL. After 40 min at 37 °C, the reaction was stopped with 100 µL of methanol to precipitate the protein. Samples from sulfation and glucuronidation were then centrifuged for 30 min (14,000× g, 4 °C), and the resultant supernatants were analyzed using UPLC-DAD-MS as described above. The kinetic model that was used to analyze the results was substrate inhibition. Kinetic parameters, i.e., Vmax and Km were obtained using GraphPad Prism software (La Jolla, CA, USA). Results are expressed as mean ± sem of three independent experiments.

[2] = Glucuronidation of ε-viniferin by human liver S9 fractions (UDPGA); format: in vitro ADME; conditions: for Vmax: formation of the glucuronide from ε-viniferin, human liver S9, mean ± SEM, n=3; for relative abundance among the glucuronides (UPLC-DAD profile): human liver S9 2 mg/mL, ε-viniferin 50 µM, UDPGA, 40 min, 37 °C
Protocol: as §1, §2, §3
(§4) V = (Vmax × [S])/(Km + [S] + [S]^2/Ki),
(§5) Vmax: maximal velocity; Km: substrate affinity constant; [S]: substrate concentration; Ki: substrate inhibition constant.

[3] = Glucuronidation of ε-viniferin by rat liver S9 fractions (UDPGA); format: in vitro ADME; conditions: for Vmax: formation of the glucuronide from ε-viniferin, rat liver S9, mean ± SEM, n=3
Protocol: as §1, §2, §3
(§6) V = (Vmax × [S])/(Km + [S] + [S]^2/Ki), […]

[4] = Formation of glucurono- and sulfoconjugates of ε-viniferin (50 µM, 40 min) with human liver S9 fractions; format: in vitro ADME; conditions: human liver S9, ε-viniferin 50 µM
Protocol: as §1, §2, §3

[5] = Sulfation of ε-viniferin by human liver S9 fractions (PAPS); format: in vitro ADME; conditions: for Vmax: formation of the sulfate from ε-viniferin, human liver S9, mean ± SEM, n=3; for relative abundance among the sulfoconjugates (UPLC-DAD profile): human liver S9 2 mg/mL, ε-viniferin 50 µM, PAPS, 40 min, 37 °C
Protocol: as §1, §2, §3, §6

[6] = Sulfation of ε-viniferin by rat liver S9 fractions (PAPS); format: in vitro ADME; conditions: for Vmax: formation of the sulfate from ε-viniferin, rat liver S9, mean ± SEM, n=3; for relative abundance among the sulfoconjugates (UPLC-DAD profile): rat liver S9 2 mg/mL, ε-viniferin 50 µM, PAPS, 40 min, 37 °C
Protocol: as §1, §2, §3, §4, §5

[7] = rat, in vivo; cited from earlier work
[8] = parameters: method as in PMID 27902942; conditions: mice, oral administration; cited from earlier work

Compound | percentage of each metabolite relative to the total amount of ε-viniferin metabolites formed by glucuronidation [1] | percentage of each metabolite relative to the total amount of ε-viniferin metabolites formed by glucuronidation [4] | relative abundance among the sulfoconjugates (UPLC-DAD profile) [5] | percentage of each metabolite relative to the total amount of ε-viniferin metabolites formed by sulfation [1] | relative abundance among the sulfoconjugates (UPLC-DAD profile) [6] | percentage of each metabolite relative to the total amount of ε-viniferin metabolites formed by sulfation [4] | Vmax [2] | Vmax [3] | Vmax [6] | also measured
O=C(O)C1OC(Oc2cc(/C=C/c3ccc(O)cc3)c3c(c2)OC(c2ccc(O)cc2)C3c2cc(O)cc(O)c2)C(O)C(O)C1O (stereo not shown) [MG1] | MG1: 91.1 ± 2.4% | MG1: 54.6 ± 2.4% |  |  |  |  | 11.27 ± 1.30 pmol/min/mg protein | 548.90 ± 86.17 pmol/min/mg protein |  | relative abundance among the glucuronides (UPLC-DAD profile) [2]: major metabolites; relative abundance among the glucuronides (UPLC-DAD profile) ([3]; rat liver S9 2 mg/mL, ε-viniferin 50 µM, UDPGA, 40 min, 37 °C): major metabolite
O=C(O)C1OC(Oc2ccc(/C=C/c3cc(O)cc4c3C(c3cc(O)cc(O)c3)C(c3ccc(O)cc3)O4)cc2)C(O)C(O)C1O (stereo not shown) [MG2] | MG2: 1.1 ± 0.2% | MG2: 5.0 ± 1.2% |  |  |  |  | 2.54 ± 0.16 pmol/min/mg protein | 12.49 ± 1.13 pmol/min/mg protein |  | 
O=C(O)C1OC(Oc2ccc(C3Oc4cc(O)cc(/C=C/c5ccc(O)cc5)c4C3c3cc(O)cc(O)c3)cc2)C(O)C(O)C1O (stereo not shown) [MG3] | MG3: 0.7 ± 0.0% | MG3: 8.9 ± 0.5% |  |  |  |  | 0.78 ± 0.06 pmol/min/mg protein | 3.06 ± 0.14 pmol/min/mg protein |  | 
O=C(O)C1OC(Oc2cc(O)cc(C3c4c(/C=C/c5ccc(O)cc5)cc(O)cc4OC3c3ccc(O)cc3)c2)C(O)C(O)C1O (stereo not shown) [MG4] | MG4: 7.1 ± 0.1% | MG4: 31.5 ± 0.9% |  |  |  |  | 4.91 ± 0.78 pmol/min/mg protein | 43.99 ± 5.49 pmol/min/mg protein |  | relative abundance among the glucuronides (UPLC-DAD profile) [2]: major metabolites
Oc1ccc([C@H]2Oc3ccc(/C=C/c4cc(O)cc(O)c4)cc3[C@@H]2c2cc(O)cc(O)c2)cc1 [δ-viniferin] |  |  |  |  |  |  |  |  |  | oral bioavailability [7]: 2.3%
Oc1ccc(/C=C/c2cc(O)cc3c2[C@@H](c2cc(O)cc(O)c2)[C@H](c2ccc(O)cc2)O3)cc1 [ε-viniferin, ε-Viniferin] |  |  |  |  |  |  |  |  |  | Sulfatation (%) [1]: 4.3% and 4.3 ± 0.3%; ε-viniferin conversion (%) [1]: 78.1 ± 0.9%; oral bioavailability [8]: 0.77%; Glucuronidation (%) [4]: 29.1% and 29.1 ± 1.2%; Sulfatation (%) [4]: 43.6% and 43.6 ± 1.8%

Further lines, with some results ahead:

percentage of each metabolite relative to the total amount of ε-viniferin metabolites formed by glucuronidation [1] | percentage of each metabolite relative to the total amount of ε-viniferin metabolites formed by glucuronidation [4] | relative abundance among the sulfoconjugates (UPLC-DAD profile) [5] | percentage of each metabolite relative to the total amount of ε-viniferin metabolites formed by sulfation [1] | relative abundance among the sulfoconjugates (UPLC-DAD profile) [6] | percentage of each metabolite relative to the total amount of ε-viniferin metabolites formed by sulfation [4] | Compound | Vmax [2] | Vmax [3] | Vmax [6] | also measured
 |  | major metabolite | MS1: 38.0 ± 1.4% | almost equal amounts | MS1: 75.2 ± 3.8% | O=S(=O)(O)Oc1cc(/C=C/c2ccc(O)cc2)c2c(c1)OC(c1ccc(O)cc1)C2c1cc(O)cc(O)c1 (stereo not shown) [MS1] |  |  | 25.16 ± 2.29 pmol/min/mg protein | Vmax [5]: 361.60 ± 13.09 pmol/min/mg protein
 |  |  | MS2: 23.5 ± 3.1% | almost equal amounts | MS2: 24.8 ± 1.2% | O=S(=O)(O)Oc1ccc(/C=C/c2cc(O)cc3c2C(c2cc(O)cc(O)c2)C(c2ccc(O)cc2)O3)cc1 (stereo not shown) [MS2] |  |  | 8.46 ± 0.89 pmol/min/mg protein | Vmax [5]: 30.46 ± 0.96 pmol/min/mg protein
 |  | trace amount | MS3: 22.0 ± 1.9% | almost equal amounts | MS3: 0% | O=S(=O)(O)Oc1ccc(C2Oc3cc(O)cc(/C=C/c4ccc(O)cc4)c3C2c2cc(O)cc(O)c2)cc1 (stereo not shown) [MS3] |  |  | 13.47 ± 1.10 pmol/min/mg protein | 
 |  | trace amount | MS4: 16.4 ± 1.3% | almost equal amounts | MS4: 0% | O=S(=O)(O)Oc1cc(O)cc(C2c3c(/C=C/c4ccc(O)cc4)cc(O)cc3OC2c2ccc(O)cc2)c1 (stereo not shown) [MS4] |  |  | 36.79 ± 3.94 pmol/min/mg protein | 
